Source: patent US10501516B2, “Peptide compound” (TAKEDA PHARMACEUTICAL COMPANY LIMITED, priority 2016, dated 2019)
Square brackets hold non-standard residues; d marks the D form. Side chains are listed from the residue outwards. Peptide text beside a SMILES is read from it. * marks the point of attachment. Phe(2-F) = N[C@@H](Cc1ccccc1F)C(=O)O; NMeY = CN[C@@H](Cc1ccc(O)cc1)C(=O)O; Palmitoyl = CCCCCCCCCCCCCCCC(=O)*; αMeF = C[C@](N)(Cc1ccccc1)C(=O)O; Iva = CC[C@](C)(N)C(=O)O; Aib = CC(C)(N)C(=O)O

Test system: male C57BL/6J mouse
Assay: Evaluation of feeding suppressive action in mice
Format: in vivo
Details: 30 nmol/kg s.c. once a day for 3 days; 3-days cumulative food consumption vs solvent control
Description: The feeding suppressive activity of a test compound was examined by the method described below.
The test compound was dissolved at a concentration of 30 or 100 nmol/2 mL in a solvent (10% DMSO-containing physiological saline). The test compound solution was subcutaneously administered at a dose of 2 mL/kg to the back of each male C57BL/6J mouse at 8-9 weeks of age (20-26° C., allowed to take food and water ad libitum; raised in the 12-hour bright-12-hour dark cycle). The administration was performed once a day for 3 days. After the administration, the mouse was individually raised in a rearing cage, and given previously weighed food; food consumption for 3 days after the start of administration was measured. The food consumption was calculated by subtracting the amount of remaining food from the weight of the food given on the day of the start of administration. When the food consumption of a control group receiving administration of the solvent alone was regarded as a suppression rate of 0%, the feeding suppressive activity of each test compound was evaluated on the basis of 3-days cumulative food consumption after the start of administration. The food intake suppression rate (%) of the test compound was defined as (Food consumption of the control group−Food consumption of the test compound-administered group)/Food consumption of the control group×100.

Row | Compound | Rate of feeding suppression (%)
1 | CCCCCCCCCCCCCCCC(=O)NCC(=O)NCC(=O)NCC(=O)NCC(=O)NCCCC[C@H](NC(=O)[C@H](CC(=O)O)NC(=O)[C@H](CO)NC(=O)[C@@H](NC(=O)[C@](C)(Cc1ccccc1)NC(=O)[C@@H](NC(=O)CNC(=O)[C@H](CCC(=O)O)NC(=O)C(C)(C)NC(=O)[C@@H](N)Cc1ccc(O)cc1)[C@@H](C)O)[C@@H](C)O)C(=O)NC(C)(C)C(=O)N[C@H](C(=O)NC(C)(C)C(=O)N[C@@H](CC(C)C)C(=O)N[C@@H](CC(=O)O)C(=O)N[C@@H](CCCCN)C(=O)N[C@@H](CCC(N)=O)C(=O)N[C@@H](C)C(=O)N[C@@H](CCC(N)=O)C(=O)N[C@@](C)(CC)C(=O)N[C@@H](CCC(=O)O)C(=O)N[C@@H](Cc1ccccc1)C(=O)N[C@H](C(=O)N[C@@H](CCCNC(=N)N)C(=O)N[C@@H](Cc1c[nH]cn1)C(=O)N[C@@H](CC(C)C)C(=O)N[C@@H](CC(C)C)C(=O)N[C@@H](CC(N)=O)C(=O)N[C@@H](CCCCN)C(=O)NC(C)(C)C(=O)N[C@H](C(=O)N[C@@H](CCCNC(=N)N)C(=O)N[C@@H](CCC(N)=O)C(=O)N[C@@H](CCCNC(=N)N)C(=O)N[C@@H](Cc1ccccc1F)C(N)=O)[C@@H](C)O)C(C)C)[C@@H](C)CC [Example 1] (H-Y[Aib]EGT[αMeF]TSDK([Gly-Gly-Gly-Gly-Palmitoyl])[Aib]I[Aib]LDKQAQ[Iva]EFVRHLLNK[Aib]TRQR[Phe(2-F)]-NH2) | −37.1
2 | CCCCCCCCCCCCCCCC(=O)NCC(=O)NCC(=O)NCC(=O)NCC(=O)NCCCC[C@H](NC(=O)[C@H](CC(=O)O)NC(=O)[C@H](CO)NC(=O)[C@@H](NC(=O)[C@](C)(Cc1ccccc1)NC(=O)[C@@H](NC(=O)CNC(=O)[C@H](CCC(=O)O)NC(=O)C(C)(C)NC(=O)[C@@H](N)Cc1ccc(O)cc1)[C@@H](C)O)[C@@H](C)O)C(=O)N[C@@H](C)C(=O)N[C@H](C(=O)NC(C)(C)C(=O)N[C@@H](CC(C)C)C(=O)N[C@@H](CC(=O)O)C(=O)N[C@@H](CCCCN)C(=O)N[C@@H](CCC(N)=O)C(=O)N[C@@H](CCCNC(=N)N)C(=O)N[C@@H](CCC(N)=O)C(=O)N[C@@](C)(CC)C(=O)N[C@@H](CCC(=O)O)C(=O)N[C@@H](Cc1ccccc1)C(=O)N[C@H](C(=O)N[C@@H](CCCNC(=N)N)C(=O)N[C@@H](Cc1c[nH]cn1)C(=O)N[C@@H](CC(C)C)C(=O)N[C@@H](CC(C)C)C(=O)N[C@@H](CC(N)=O)C(=O)N[C@@H](CCCCN)C(=O)NC(C)(C)C(=O)N[C@H](C(=O)N[C@@H](CCCNC(=N)N)C(=O)N[C@@H](CCC(N)=O)C(=O)N[C@@H](CCCNC(=N)N)C(=O)N[C@@H](Cc1ccc(O)cc1)C(N)=O)[C@@H](C)O)C(C)C)[C@@H](C)CC [Example 11] (H-Y[Aib]EGT[αMeF]TSDK([Gly-Gly-Gly-Gly-Palmitoyl])AI[Aib]LDKQRQ[Iva]EFVRHLLNK[Aib]TRQRY-NH2) | −48.1
3 | CCCCCCCCCCCCCCCC(=O)NCC(=O)NCC(=O)NCC(=O)NCC(=O)NCCCC[C@H](NC(=O)[C@H](CC(=O)O)NC(=O)[C@H](CO)NC(=O)[C@@H](NC(=O)[C@](C)(Cc1ccccc1)NC(=O)[C@@H](NC(=O)CNC(=O)[C@H](CCC(=O)O)NC(=O)C(C)(C)NC(=O)[C@@H](N)Cc1ccc(O)cc1)[C@@H](C)O)[C@@H](C)O)C(=O)N[C@@H](CO)C(=O)N[C@H](C(=O)NC(C)(C)C(=O)N[C@@H](CC(C)C)C(=O)N[C@@H](CC(=O)O)C(=O)N[C@@H](CCCCN)C(=O)N[C@@H](CCC(N)=O)C(=O)N[C@@H](CCCNC(=N)N)C(=O)N[C@@H](CCC(N)=O)C(=O)N[C@@](C)(CC)C(=O)N[C@@H](CCC(=O)O)C(=O)N[C@@H](Cc1ccccc1)C(=O)N[C@H](C(=O)N[C@@H](CCCNC(=N)N)C(=O)N[C@@H](Cc1c[nH]cn1)C(=O)N[C@@H](CC(C)C)C(=O)N[C@@H](CC(C)C)C(=O)N[C@@H](CC(N)=O)C(=O)N[C@@H](CCCCN)C(=O)NC(C)(C)C(=O)N[C@H](C(=O)N[C@@H](CCCNC(=N)N)C(=O)N[C@@H](CCC(N)=O)C(=O)N[C@@H](CCCNC(=N)N)C(=O)N[C@@H](Cc1ccc(O)cc1)C(N)=O)[C@@H](C)O)C(C)C)[C@@H](C)CC [Example 15] (H-Y[Aib]EGT[αMeF]TSDK([Gly-Gly-Gly-Gly-Palmitoyl])SI[Aib]LDKQRQ[Iva]EFVRHLLNK[Aib]TRQRY-NH2) | −41.2
4 | CCCCCCCCCCCCCCCC(=O)NCC(=O)NCC(=O)NCC(=O)NCC(=O)NCCCC[C@H](NC(=O)[C@H](CC(=O)O)NC(=O)[C@H](CO)NC(=O)[C@@H](NC(=O)[C@](C)(Cc1ccccc1)NC(=O)[C@@H](NC(=O)CNC(=O)[C@H](CCC(=O)O)NC(=O)C(C)(C)NC(=O)[C@@H](N)Cc1ccc(O)cc1)[C@@H](C)O)[C@@H](C)O)C(=O)NC(C)(C)C(=O)N[C@@H](CCCCN)C(=O)NC(C)(C)C(=O)N[C@@H](CC(C)C)C(=O)N[C@@H](CC(=O)O)C(=O)N[C@@H](CCCCN)C(=O)N[C@@H](CCC(N)=O)C(=O)N[C@@H](CCCNC(=N)N)C(=O)N[C@@H](CCC(N)=O)C(=O)N[C@@](C)(CC)C(=O)N[C@@H](CCC(=O)O)C(=O)N[C@@H](Cc1ccccc1)C(=O)N[C@H](C(=O)N[C@@H](CCCNC(=N)N)C(=O)N[C@@H](Cc1c[nH]cn1)C(=O)N[C@@H](CC(C)C)C(=O)N[C@@H](CC(C)C)C(=O)N[C@@H](CC(N)=O)C(=O)N[C@@H](CCCCN)C(=O)NC(C)(C)C(=O)N[C@H](C(=O)N[C@@H](CCCNC(=N)N)C(=O)N[C@@H](CCC(N)=O)C(=O)N[C@@H](CCCNC(=N)N)C(=O)N[C@@H](Cc1ccc(O)cc1)C(N)=O)[C@@H](C)O)C(C)C [Example 19] (H-Y[Aib]EGT[αMeF]TSDK([Gly-Gly-Gly-Gly-Palmitoyl])[Aib]K[Aib]LDKQRQ[Iva]EFVRHLLNK[Aib]TRQRY-NH2) | −37.0
5 | CCCCCCCCCCCCCCCC(=O)NCC(=O)NCC(=O)NCC(=O)NCC(=O)NCCCC[C@H](NC(=O)[C@H](CC(=O)O)NC(=O)[C@H](CO)NC(=O)[C@@H](NC(=O)[C@](C)(Cc1ccccc1)NC(=O)[C@@H](NC(=O)CNC(=O)[C@H](CCC(=O)O)NC(=O)C(C)(C)NC(=O)[C@H](Cc1ccc(O)cc1)NC)[C@@H](C)O)[C@@H](C)O)C(=O)NC(C)(C)C(=O)N[C@@H](CCCCN)C(=O)NC(C)(C)C(=O)N[C@@H](CC(C)C)C(=O)N[C@@H](CC(=O)O)C(=O)N[C@@H](CCCCN)C(=O)N[C@@H](CCC(N)=O)C(=O)N[C@@H](CCCNC(=N)N)C(=O)N[C@@H](CCC(N)=O)C(=O)N[C@@](C)(CC)C(=O)N[C@@H](CCC(=O)O)C(=O)N[C@@H](Cc1ccccc1)C(=O)N[C@H](C(=O)N[C@@H](CCCNC(=N)N)C(=O)N[C@@H](Cc1c[nH]cn1)C(=O)N[C@@H](CC(C)C)C(=O)N[C@@H](CC(C)C)C(=O)N[C@@H](CC(N)=O)C(=O)N[C@@H](CCCCN)C(=O)NC(C)(C)C(=O)N[C@H](C(=O)N[C@@H](CCCNC(=N)N)C(=O)N[C@@H](CCC(N)=O)C(=O)N[C@@H](CCCNC(=N)N)C(=O)N[C@@H](Cc1ccc(O)cc1)C(N)=O)[C@@H](C)O)C(C)C [Example 21] (H-[NMeY][Aib]EGT[αMeF]TSDK([Gly-Gly-Gly-Gly-Palmitoyl])[Aib]K[Aib]LDKQRQ[Iva]EFVRHLLNK[Aib]TRQRY-NH2) | −27.9
